Experimental data as given in ChEMBL document CHEMBL5653615 (J Biol Chem, 2013).

Columns and labels:
[1] = target: Calcium/calmodulin-dependent protein kinase type II subunit alpha (Homo sapiens) (UniProt Q9UQM7); assay: Inhibition of human CAMK2a at 500 nM by HotSpot assay relative to control
[2] = target: Calcium/calmodulin-dependent protein kinase type II subunit beta (Homo sapiens) (UniProt Q13554); assay: Inhibition of human CAMK2b at 500 nM by HotSpot assay relative to control
[3] = target: CDK9/cyclin T1 (Homo sapiens) (UniProt O60563+P50750); assay: Inhibition of human CDK9/cyclin T1 at 500 nM by HotSpot assay relative to control; format: protein-complex assay
[4] = target: T1, Dual specificity tyrosine-phosphorylation-regulated kinase 2 (Homo sapiens) (UniProt Q92630); assay: Inhibition of human DYRK2 at 500 nM by HotSpot assay relative to control
T1 sequence (whole entry): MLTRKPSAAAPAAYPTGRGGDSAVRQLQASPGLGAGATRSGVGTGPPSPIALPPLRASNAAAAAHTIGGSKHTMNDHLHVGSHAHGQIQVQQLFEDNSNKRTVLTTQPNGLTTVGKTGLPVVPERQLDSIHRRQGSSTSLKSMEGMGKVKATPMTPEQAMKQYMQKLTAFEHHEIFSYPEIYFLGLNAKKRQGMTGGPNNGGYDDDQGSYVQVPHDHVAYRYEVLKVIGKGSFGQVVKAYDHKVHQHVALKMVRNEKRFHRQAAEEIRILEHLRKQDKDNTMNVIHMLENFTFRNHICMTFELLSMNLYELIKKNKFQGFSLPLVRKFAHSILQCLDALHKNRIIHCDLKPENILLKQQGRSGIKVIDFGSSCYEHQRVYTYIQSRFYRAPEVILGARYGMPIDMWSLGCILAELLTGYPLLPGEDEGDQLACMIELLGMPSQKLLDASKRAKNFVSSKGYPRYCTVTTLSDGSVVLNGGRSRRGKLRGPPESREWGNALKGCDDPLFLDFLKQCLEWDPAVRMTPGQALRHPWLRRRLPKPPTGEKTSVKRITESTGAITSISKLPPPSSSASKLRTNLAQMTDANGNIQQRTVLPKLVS

[5] = target: Epidermal growth factor receptor (Homo sapiens) (UniProt P00533); assay: Inhibition of human EGFR at 500 nM by HotSpot assay relative to control
Epidermal growth factor receptor (Homo sapiens), sequence (P00533 whole entry): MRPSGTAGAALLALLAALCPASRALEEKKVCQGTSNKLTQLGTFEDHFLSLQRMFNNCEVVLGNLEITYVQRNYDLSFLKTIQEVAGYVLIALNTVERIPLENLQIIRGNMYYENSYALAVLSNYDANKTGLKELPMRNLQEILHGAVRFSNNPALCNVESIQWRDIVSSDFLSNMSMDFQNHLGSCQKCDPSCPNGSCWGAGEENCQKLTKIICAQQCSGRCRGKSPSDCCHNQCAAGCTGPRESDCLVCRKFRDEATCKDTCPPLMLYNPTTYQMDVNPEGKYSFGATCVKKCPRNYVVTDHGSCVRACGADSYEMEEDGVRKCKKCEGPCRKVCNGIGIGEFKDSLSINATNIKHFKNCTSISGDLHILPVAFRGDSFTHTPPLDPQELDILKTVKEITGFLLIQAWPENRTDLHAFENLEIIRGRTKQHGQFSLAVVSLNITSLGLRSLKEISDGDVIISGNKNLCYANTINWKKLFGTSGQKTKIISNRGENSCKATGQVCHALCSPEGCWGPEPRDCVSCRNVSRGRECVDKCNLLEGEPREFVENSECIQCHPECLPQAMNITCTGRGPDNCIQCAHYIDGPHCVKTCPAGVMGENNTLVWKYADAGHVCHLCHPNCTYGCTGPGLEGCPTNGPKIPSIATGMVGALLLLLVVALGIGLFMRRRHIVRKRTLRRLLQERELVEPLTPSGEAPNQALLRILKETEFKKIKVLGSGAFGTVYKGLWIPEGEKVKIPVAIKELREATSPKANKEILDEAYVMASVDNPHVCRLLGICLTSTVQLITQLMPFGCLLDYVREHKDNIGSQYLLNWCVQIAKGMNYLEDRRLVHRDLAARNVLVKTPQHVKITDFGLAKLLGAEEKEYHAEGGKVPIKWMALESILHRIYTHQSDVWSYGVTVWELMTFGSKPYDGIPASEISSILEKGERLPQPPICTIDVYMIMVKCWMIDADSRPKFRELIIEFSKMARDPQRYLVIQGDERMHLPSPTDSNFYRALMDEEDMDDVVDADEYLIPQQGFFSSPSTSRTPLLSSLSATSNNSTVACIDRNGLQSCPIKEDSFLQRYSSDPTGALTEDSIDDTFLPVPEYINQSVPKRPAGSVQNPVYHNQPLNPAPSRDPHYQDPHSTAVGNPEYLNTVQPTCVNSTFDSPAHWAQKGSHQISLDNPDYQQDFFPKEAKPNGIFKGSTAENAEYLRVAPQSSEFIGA

[6] = target: Ephrin type-A receptor 5 (Homo sapiens) (UniProt P54756); assay: Inhibition of human EPHA5 at 500 nM by HotSpot assay relative to control
Ephrin type-A receptor 5 (Homo sapiens), sequence (P54756 whole entry): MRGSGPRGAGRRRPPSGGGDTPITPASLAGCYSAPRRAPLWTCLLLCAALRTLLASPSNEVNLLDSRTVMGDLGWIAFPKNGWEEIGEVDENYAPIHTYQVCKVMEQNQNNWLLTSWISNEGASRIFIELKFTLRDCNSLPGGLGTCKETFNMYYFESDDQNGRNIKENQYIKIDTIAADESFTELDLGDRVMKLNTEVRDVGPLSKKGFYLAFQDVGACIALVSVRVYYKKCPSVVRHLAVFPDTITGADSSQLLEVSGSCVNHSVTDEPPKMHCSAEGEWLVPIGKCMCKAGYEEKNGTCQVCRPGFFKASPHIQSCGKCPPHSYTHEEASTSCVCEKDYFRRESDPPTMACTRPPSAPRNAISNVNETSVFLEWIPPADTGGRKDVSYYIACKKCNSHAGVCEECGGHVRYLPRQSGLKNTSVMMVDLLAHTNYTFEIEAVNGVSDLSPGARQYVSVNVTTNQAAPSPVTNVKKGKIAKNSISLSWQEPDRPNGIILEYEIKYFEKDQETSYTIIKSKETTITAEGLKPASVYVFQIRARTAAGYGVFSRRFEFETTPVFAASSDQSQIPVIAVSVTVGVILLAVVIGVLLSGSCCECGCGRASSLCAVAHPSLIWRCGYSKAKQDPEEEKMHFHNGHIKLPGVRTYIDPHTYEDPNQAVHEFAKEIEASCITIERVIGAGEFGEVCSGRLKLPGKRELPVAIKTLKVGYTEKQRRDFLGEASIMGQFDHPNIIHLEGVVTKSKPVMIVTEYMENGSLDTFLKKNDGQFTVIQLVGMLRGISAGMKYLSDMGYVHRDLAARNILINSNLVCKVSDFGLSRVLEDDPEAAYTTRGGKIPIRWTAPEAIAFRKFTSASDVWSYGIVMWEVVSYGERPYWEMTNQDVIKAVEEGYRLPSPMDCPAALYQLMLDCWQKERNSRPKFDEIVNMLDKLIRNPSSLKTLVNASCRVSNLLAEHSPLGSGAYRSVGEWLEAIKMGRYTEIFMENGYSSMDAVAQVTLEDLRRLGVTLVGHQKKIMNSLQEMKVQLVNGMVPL

[7] = target: T2, Beta-adrenergic receptor kinase 1 (Homo sapiens) (UniProt P25098); assay: Inhibition of human GRK2 at 500 nM by HotSpot assay relative to control
T2 sequence (whole entry): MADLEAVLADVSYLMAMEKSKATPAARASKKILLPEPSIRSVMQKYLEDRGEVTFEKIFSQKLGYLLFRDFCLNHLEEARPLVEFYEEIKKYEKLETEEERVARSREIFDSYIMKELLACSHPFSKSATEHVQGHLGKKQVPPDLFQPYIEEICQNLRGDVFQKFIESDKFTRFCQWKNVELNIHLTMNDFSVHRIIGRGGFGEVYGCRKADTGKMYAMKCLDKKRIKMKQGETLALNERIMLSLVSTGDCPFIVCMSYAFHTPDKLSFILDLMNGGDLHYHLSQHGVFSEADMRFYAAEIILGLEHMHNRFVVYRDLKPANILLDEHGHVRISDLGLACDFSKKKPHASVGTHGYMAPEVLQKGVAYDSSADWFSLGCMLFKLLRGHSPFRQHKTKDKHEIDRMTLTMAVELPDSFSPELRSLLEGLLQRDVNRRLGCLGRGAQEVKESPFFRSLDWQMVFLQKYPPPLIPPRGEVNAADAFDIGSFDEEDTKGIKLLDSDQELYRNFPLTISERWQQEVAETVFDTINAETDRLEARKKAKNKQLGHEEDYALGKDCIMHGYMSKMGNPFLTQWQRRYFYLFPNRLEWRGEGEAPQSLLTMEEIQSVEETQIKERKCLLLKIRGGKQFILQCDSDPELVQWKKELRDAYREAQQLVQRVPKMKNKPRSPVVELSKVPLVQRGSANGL

[8] = target: G protein-coupled receptor kinase 5 (Homo sapiens) (UniProt P34947); assay: Inhibition of human GRK5 at 500 nM by HotSpot assay relative to control
[9] = target: Homeodomain-interacting protein kinase 1 (Homo sapiens) (UniProt Q86Z02); assay: Inhibition of human HIPK1 at 500 nM by HotSpot assay relative to control
Homeodomain-interacting protein kinase 1 (Homo sapiens), sequence (Q86Z02 whole entry, looked up): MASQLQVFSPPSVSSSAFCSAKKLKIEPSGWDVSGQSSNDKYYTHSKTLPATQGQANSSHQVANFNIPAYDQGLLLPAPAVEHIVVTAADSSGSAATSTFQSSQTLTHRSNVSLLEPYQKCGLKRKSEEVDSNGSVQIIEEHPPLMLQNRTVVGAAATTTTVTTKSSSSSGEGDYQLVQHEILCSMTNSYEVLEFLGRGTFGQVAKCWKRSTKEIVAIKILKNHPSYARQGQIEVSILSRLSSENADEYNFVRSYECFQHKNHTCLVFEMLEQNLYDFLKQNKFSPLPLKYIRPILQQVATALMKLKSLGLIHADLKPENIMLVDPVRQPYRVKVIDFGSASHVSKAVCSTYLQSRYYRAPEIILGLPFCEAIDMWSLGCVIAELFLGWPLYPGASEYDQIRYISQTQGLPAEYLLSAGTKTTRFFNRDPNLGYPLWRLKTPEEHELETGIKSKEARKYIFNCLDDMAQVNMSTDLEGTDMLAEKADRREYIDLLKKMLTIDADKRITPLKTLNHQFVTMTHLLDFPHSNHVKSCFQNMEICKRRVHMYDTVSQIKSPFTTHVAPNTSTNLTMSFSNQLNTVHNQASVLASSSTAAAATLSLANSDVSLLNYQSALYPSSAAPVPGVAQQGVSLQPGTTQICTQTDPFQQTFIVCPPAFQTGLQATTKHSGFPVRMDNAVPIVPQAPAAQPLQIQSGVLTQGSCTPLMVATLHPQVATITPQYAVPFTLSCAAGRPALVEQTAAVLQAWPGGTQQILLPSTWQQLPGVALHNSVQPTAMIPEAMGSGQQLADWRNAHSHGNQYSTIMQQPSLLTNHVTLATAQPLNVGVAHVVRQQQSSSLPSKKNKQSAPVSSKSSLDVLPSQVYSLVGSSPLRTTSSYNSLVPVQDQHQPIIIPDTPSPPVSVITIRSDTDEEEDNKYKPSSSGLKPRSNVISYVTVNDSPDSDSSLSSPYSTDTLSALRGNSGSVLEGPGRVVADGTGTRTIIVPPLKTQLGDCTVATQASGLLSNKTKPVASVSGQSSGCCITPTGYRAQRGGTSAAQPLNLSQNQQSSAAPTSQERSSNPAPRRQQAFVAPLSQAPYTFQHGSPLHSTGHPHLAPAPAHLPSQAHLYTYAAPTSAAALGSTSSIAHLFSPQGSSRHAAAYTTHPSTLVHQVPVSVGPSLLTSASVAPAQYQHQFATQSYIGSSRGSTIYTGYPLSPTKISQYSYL

[10] = target: T3, Muscle, skeletal receptor tyrosine-protein kinase (Homo sapiens) (UniProt O15146); assay: Inhibition of human MUSK at 500 nM by HotSpot assay relative to control
T3 sequence (whole entry): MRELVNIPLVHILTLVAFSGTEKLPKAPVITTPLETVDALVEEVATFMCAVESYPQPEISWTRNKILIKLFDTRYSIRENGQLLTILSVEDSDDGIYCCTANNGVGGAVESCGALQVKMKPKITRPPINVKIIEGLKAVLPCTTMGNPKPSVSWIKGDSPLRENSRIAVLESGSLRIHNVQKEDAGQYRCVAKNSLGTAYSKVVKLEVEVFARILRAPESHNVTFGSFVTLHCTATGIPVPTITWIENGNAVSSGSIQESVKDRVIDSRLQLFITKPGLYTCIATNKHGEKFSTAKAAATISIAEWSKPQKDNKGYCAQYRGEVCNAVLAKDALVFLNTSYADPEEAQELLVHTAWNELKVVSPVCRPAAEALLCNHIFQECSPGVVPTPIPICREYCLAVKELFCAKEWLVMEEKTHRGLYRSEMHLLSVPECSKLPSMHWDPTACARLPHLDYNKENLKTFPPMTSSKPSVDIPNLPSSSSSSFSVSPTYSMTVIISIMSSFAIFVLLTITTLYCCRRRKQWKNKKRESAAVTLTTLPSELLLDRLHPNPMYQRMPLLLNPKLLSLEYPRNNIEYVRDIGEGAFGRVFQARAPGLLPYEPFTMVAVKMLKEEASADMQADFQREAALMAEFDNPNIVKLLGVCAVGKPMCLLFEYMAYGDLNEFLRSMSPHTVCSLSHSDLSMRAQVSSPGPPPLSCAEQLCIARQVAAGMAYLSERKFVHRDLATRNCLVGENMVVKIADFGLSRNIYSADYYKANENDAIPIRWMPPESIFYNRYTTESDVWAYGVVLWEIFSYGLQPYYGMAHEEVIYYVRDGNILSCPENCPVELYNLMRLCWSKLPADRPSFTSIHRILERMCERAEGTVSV

[11] = target: Macrophage-stimulating protein receptor (Homo sapiens) (UniProt Q04912); assay: Inhibition of human MST1R at 500 nM by HotSpot assay relative to control
Macrophage-stimulating protein receptor (Homo sapiens), sequence (Q04912 25-304 limits assumed): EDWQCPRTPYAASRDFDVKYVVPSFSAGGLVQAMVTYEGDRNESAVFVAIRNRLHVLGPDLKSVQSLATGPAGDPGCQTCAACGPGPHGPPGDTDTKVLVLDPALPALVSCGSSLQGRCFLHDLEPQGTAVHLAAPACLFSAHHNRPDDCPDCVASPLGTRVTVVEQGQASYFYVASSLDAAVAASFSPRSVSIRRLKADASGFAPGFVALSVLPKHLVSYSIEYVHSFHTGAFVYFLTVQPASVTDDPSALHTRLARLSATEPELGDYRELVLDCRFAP
Macrophage-stimulating protein receptor (Homo sapiens), sequence (Q04912 310-1400 limits assumed): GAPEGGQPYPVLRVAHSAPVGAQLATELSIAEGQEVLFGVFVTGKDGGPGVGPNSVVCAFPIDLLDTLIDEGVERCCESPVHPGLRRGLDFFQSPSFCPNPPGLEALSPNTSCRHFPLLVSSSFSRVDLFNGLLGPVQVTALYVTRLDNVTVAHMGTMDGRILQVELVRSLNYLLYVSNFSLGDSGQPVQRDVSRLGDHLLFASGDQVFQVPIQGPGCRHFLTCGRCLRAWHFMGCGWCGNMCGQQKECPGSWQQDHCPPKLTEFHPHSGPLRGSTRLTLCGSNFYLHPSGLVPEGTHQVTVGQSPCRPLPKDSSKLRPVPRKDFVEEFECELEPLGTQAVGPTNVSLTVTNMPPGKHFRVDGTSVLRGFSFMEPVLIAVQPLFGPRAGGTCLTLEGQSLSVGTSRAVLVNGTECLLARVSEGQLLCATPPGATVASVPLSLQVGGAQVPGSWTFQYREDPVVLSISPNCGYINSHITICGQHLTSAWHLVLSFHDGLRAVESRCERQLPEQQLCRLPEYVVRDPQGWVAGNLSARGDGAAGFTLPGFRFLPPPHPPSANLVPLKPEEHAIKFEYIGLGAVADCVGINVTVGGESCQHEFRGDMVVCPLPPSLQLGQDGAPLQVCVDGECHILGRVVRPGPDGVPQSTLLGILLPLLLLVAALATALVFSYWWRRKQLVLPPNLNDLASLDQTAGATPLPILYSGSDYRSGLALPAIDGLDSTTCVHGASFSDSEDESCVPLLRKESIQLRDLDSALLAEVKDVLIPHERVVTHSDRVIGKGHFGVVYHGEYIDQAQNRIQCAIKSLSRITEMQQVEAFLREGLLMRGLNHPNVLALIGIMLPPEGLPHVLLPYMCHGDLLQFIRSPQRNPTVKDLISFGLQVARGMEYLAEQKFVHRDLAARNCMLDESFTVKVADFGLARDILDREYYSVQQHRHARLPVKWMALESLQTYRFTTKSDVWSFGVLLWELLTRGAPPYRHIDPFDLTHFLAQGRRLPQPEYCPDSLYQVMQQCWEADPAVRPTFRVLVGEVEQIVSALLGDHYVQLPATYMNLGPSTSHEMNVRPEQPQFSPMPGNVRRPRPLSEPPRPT

| SMILES | inhibition [1] [%] | inhibition [2] [%] | inhibition [3] [%] | inhibition [4] [%] | inhibition [5] [%] | inhibition [6] [%] | inhibition [7] [%] | inhibition [8] [%] | inhibition [9] [%] | inhibition [10] [%] | inhibition [11] [%] |
| --- | --- | --- | --- | --- | --- | --- | --- | --- | --- | --- | --- |
| Oc1n[nH]c2nnc(-c3c(-c4ccccc4)nn4ccccc34)cc12 | -5.26 | -1.77 | 3.66 | -3.03 | 10 | -0.84 | 5.01 | -0.63 | -1.71 | 3.28 | -6.32 |
| Nc1n[nH]c2nnc(-c3c(-c4ccccc4)nn4ccccc34)cc12 | -2.07 | -2.4 | 2.74 | -3.42 | 16.1 | -0.54 | 4.99 | -6.2 | -4.88 | 3.22 | -1.66 |
